Assay results published in publication PMC9297976 (Journal of Applied Toxicology, 2021).

Legend:
medaka Esr1 (mEsr1) [1] = target: T1, medaka Esr1 (mEsr1) (Oryzias latipes, UniProt P50241); test: Medaka Esr1 reporter gene assay, antagonist assay; type: cell-based, Japanese medaka (Oryzias latipes); conditions: MAC = 1.0 × 10^−5 M
T1 sequence (P50241 1-620): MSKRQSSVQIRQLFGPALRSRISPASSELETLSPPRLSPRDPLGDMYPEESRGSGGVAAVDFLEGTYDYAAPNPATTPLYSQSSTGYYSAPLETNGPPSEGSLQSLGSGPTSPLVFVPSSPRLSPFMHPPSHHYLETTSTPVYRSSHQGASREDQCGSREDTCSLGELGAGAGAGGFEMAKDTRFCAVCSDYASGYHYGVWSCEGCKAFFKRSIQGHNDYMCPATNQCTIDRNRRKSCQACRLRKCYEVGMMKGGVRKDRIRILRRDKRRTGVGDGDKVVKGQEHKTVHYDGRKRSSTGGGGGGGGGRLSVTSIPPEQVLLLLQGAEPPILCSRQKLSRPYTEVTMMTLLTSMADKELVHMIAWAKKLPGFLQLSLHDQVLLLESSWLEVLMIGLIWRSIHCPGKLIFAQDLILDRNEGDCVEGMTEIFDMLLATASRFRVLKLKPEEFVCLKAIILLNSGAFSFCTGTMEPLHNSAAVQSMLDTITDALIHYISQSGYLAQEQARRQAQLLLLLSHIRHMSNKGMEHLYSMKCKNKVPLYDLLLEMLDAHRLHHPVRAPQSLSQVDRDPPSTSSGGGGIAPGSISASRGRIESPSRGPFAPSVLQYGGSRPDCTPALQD

medaka Esr1 (mEsr1) [2] = target: T1, medaka Esr1 (mEsr1); test: cell-based; set-up: species or system Japanese medaka (Oryzias latipes); conditions: for In vitro positive: Esr: mode of action in which EC50 or PC10 was obtained in RGA
medaka ARβ (mArβ) [3] = target: T2, medaka ARβ (mArβ) (Oryzias latipes, UniProt D1MV73); test: Medaka ARβ reporter gene assay, antagonist assay; type: cell-based, Japanese medaka (Oryzias latipes); conditions: 11‐KT spiked at 50 nM (D); MAC = 1.0 × 10^−5 M
T2 sequence (D1MV73 1-744): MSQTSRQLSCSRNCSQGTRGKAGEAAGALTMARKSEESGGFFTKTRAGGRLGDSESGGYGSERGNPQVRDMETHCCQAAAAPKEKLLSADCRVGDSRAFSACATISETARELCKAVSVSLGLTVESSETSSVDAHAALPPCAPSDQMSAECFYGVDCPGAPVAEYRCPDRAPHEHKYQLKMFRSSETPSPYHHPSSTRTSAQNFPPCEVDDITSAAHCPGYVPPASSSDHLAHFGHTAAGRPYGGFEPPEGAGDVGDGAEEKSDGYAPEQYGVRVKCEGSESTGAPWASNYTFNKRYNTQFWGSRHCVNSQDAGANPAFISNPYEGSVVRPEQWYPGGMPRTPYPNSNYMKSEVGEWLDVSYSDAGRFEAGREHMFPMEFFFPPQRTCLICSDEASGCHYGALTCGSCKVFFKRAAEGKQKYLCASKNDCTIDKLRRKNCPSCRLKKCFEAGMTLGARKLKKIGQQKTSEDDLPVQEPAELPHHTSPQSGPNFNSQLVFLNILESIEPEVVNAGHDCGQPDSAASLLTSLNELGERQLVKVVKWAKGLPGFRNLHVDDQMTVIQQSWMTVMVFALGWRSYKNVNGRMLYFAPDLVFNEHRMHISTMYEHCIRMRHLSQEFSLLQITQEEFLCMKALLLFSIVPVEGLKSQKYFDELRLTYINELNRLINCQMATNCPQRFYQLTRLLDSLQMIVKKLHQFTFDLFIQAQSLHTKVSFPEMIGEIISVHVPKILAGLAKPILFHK

medaka ARβ (mArβ) [4] = target: T2, medaka ARβ (mArβ); test: Medaka ARβ reporter gene assay, agonist assay; type: cell-based, Japanese medaka (Oryzias latipes); conditions: MAC = 1.0 × 10^−5 M
[5] = tested on: Japanese medaka (Oryzias latipes); test: Fish Short‐Term Reproduction Assay; type: in vivo; conditions: for minimal effective concentration: Oryzias latipes, 504 h, read-out: LOECmVTG; for LOECTOX: lowest observed effect concentration on mortality; for GSI Female / GSI Male / HSI Female / HSI Male / Length Female / Length Male / Weight Female / Weight Male: completion of exposure
[6] = measured concentration 0.0619 μg/L
[7] = measured concentration 0.294 μg/L
[8] = measured concentration 1.30 μg/L
[9] = 177 μg/L measured, 21 d, sig. ↑ vs control
[10] = 353 μg/L measured, 21 d, sig. ↑ vs control
[11] = 353 μg/L measured, 21 d, sig. ↓ vs control
[12] = measured concentration 54.4 μg/L
[13] = measured concentration 104 μg/L
[14] = measured concentration 177 μg/L
[15] = measured concentration 353 μg/L

## CC(C)C(C(=O)OC(C#N)c1cccc(Oc2ccccc2)c1)c1ccc(Cl)cc1 (stereo not shown) [FV, Fenvalerate]
Medaka Esr1 (mEsr1) [1]; E2 spiked at 0.2 nM (A)
  Antagonistic activity: NE (MAC = 1.0 × 10^−5 M) ^(A)
Medaka Esr1 (mEsr1) [2]
  EC50: 2400 nM
  In vitro positive: Esr: Esr
Medaka ARβ (mArβ) [3]
  Antagonistic activity: NE (MAC = 1.0 × 10^−5 M)^(D)
Medaka ARβ (mArβ) [4]
  Agonistic activity: NE (MAC = 1.0 × 10^−5 M)
[5]; 0.0619 μg/L measured, 21 d
  Fertility rate: 92 ± 3.2%
  Hepatic VTG, female: 390 ± 68 ng/mg‐liver
  Hepatic VTG, male: 0.5 ± 0.0 ng/mg‐liver
  Mortality: 0.0%
  Mortality, number of dead fish: 0
  Number of fertilized eggs (per female per day): 18 ± 2.7
  Number of total eggs (per female per day): 19 ± 3.6
  SSC female (joint plates with papillary processes): 0 ± 0
  SSC male (joint plates with papillary processes): 80 ± 5.6
[5]; 0.294 μg/L measured, 21 d
  Fertility rate: 93 ± 4.3%
  Hepatic VTG, female: 370 ± 212 ng/mg‐liver
  Hepatic VTG, male: 0.5 ± 0.0 ng/mg‐liver
  Mortality: 0.0%
  Mortality, number of dead fish: 0
  Number of fertilized eggs (per female per day): 20 ± 3.5
  Number of total eggs (per female per day): 21 ± 3.1
  SSC female (joint plates with papillary processes): 0 ± 0
  SSC male (joint plates with papillary processes): 88 ± 7.2
[5]; 1.30 μg/L measured, 21 d
  Fertility rate: 94 ± 2.8%
  Hepatic VTG, female: 237 ± 152 ng/mg‐liver
  Hepatic VTG, male: 0.9 ± 0.4 ng/mg‐liver
  Mortality: 0.0%
  Mortality, number of dead fish: 0
  Number of fertilized eggs (per female per day): 23 ± 1.7
  Number of total eggs (per female per day): 24 ± 1.8
  SSC female (joint plates with papillary processes): 0 ± 0
  SSC male (joint plates with papillary processes): 83 ± 4.8
[5]; LOEC on reproduction (fecundity and/or fertility)
  LOECREPRO: ND (>1.30) μg/L
[5]
  minimal effective concentration: > 0.0013 µg/mL
  LOECTOX: ND (>1.3) μg/L
[5]; [6]
  GSI Female: 9.9 ± 0.7%
  GSI Male: 0.75 ± 0.07%
  HSI Female: 4.3 ± 0.70%
  HSI Male: 2.7 ± 0.30%
  Length Female: 33.5 ± 1.1 mm
  Length Male: 33.8 ± 1.4 mm
  Weight Female: 454 ± 36 mg
  Weight Male: 418 ± 51 mg
[5]; [7]
  GSI Female: 9.7 ± 0.5%
  GSI Male: 0.67 ± 0.11%
  HSI Female: 4.7 ± 0.40%
  HSI Male: 2.3 ± 0.50%
  Length Female: 34.4 ± 0.9 mm
  Length Male: 34.0 ± 0.2 mm
  Weight Female: 484 ± 33 mg
  Weight Male: 422 ± 22 mg
[5]; [8]
  GSI Female: 10.0 ± 0.1%
  GSI Male: 0.72 ± 0.10%
  HSI Female: 4.4 ± 0.80%
  HSI Male: 2.5 ± 0.20%
  Length Female: 34.1 ± 0.5 mm
  Length Male: 33.9 ± 1.9 mm
  Weight Female: 491 ± 33 mg
  Weight Male: 416 ± 56 mg

## Oc1cc(Cl)ccc1Oc1ccc(Cl)cc1Cl [TCS, Triclosan]
Medaka Esr1 (mEsr1) [1]; E2 spiked at 1.0 nM (B)
  Antagonistic activity: NE (MAC = 1.0 × 10^−5 M)^(B)
Medaka Esr1 (mEsr1) [2]
  Agonistic activity PC10: PC10 = 2.0 × 10^−6 M
  In vitro positive: Esr: Esr
Medaka ARβ (mArβ) [3]
  Antagonistic activity: NE (MAC = 1.0 × 10^−5 M)^(D)
Medaka ARβ (mArβ) [4]
  Agonistic activity: NE (MAC = 1.0 × 10^−5 M)
[5]; 54.4 μg/L measured, 21 d
  Fertility rate: 96 ± 3.3%
  Hepatic VTG, female: 616 ± 220 ng/mg‐liver
  Hepatic VTG, male: 3.3 ± 4.7 ng/mg‐liver
  Mortality: 4.2%
  Mortality, number of dead fish: 1
  Number of fertilized eggs (per female per day): 25 ± 4.0
  Number of total eggs (per female per day): 26 ± 3.8
  SSC female (joint plates with papillary processes): 0 ± 0
[5]; 104 μg/L measured, 21 d
  Fertility rate: 98 ± 1.4%
  Hepatic VTG, female: 698 ± 32 ng/mg‐liver
  Hepatic VTG, male: 4.5 ± 2.7 ng/mg‐liver
  Mortality: 13%
  Mortality, number of dead fish: 3
  Number of fertilized eggs (per female per day): 24 ± 1.0
  Number of total eggs (per female per day): 24 ± 1.1
  SSC female (joint plates with papillary processes): 0 ± 0
[5]; 177 μg/L measured, 21 d
  Fertility rate: 97 ± 1.5%
  Number of fertilized eggs (per female per day): 18 ± 7.0
  Number of total eggs (per female per day): 19 ± 7.2
  SSC female (joint plates with papillary processes): 0 ± 0
[5]; [9]
  Hepatic VTG, female: 955 ± 73 ng/mg‐liver
  Mortality: 29%
  Mortality, number of dead fish: 7
[5]; 177 μg/L measured, 21 d, sig. ↓ vs control
  Hepatic VTG, male: 0.9 ± 0.1 ng/mg‐liver
[5]; 353 μg/L measured, 21 d
  Fertility rate: 98 ± 0.8%
  SSC female (joint plates with papillary processes): 0 ± 0
[5]; [10]
  Hepatic VTG, female: 1,111 ± 265 ng/mg‐liver
  Mortality: 50%
  Mortality, number of dead fish: 12
[5]; [11]
  Hepatic VTG, male: 1.0 ± 0.3 ng/mg‐liver
  Number of fertilized eggs (per female per day): 10 ± 1.9
  Number of total eggs (per female per day): 10 ± 2.0
[5]; 21 d
  Change of hepatic VTG levels in females (in words): significant increase
  Fecundity, number of total eggs (in words): statistically significant decrease
[5]
  minimal effective concentration: > 0.353 µg/mL
  LOECTOX: 177 µg/L
[5]; chemicals with significant decrease of number of total eggs
  Fertility rate (in words): no significant effect
[5]; [12]
  GSI Female: 7.3 ± 0.4%
  GSI Male: 1.00 ± 0.13%
  HSI Female: 3.8 ± 0.40%
  HSI Male: 1.6 ± 0.23%
  Length Female: 33.5 ± 0.7 mm
  Length Male: 33.6 ± 0.7 mm
  Weight Female: 449 ± 11 mg
  Weight Male: 379 ± 28 mg
[5]; [13]
  GSI Female: 7.5 ± 0.6%
  GSI Male: 1.00 ± 0.23%
  HSI Female: 3.7 ± 0.79%
  HSI Male: 1.5 ± 0.09%
  Length Female: 32.8 ± 1.1 mm
  Length Male: 34.8 ± 0.7 mm
  Weight Female: 409 ± 20 mg
  Weight Male: 417 ± 13 mg
[5]; [14]
  GSI Female: 7.9 ± 1.4%
  GSI Male: 0.90 ± 0.17%
  HSI Female: 3.8 ± 0.30%
  HSI Male: 1.4 ± 0.41%
  Length Female: 32.4 ± 1.3 mm
  Length Male: 33.3 ± 0.9 mm
  Weight Female: 425 ± 45 mg
  Weight Male: 380 ± 66 mg
[5]; [15]
  GSI Female: 8.7 ± 1.1%
  GSI Male: 1.20 ± 0.73%
  HSI Female: 4.5 ± 0.23%
  HSI Male: 2.4 ± 1.08%
  Length Female: 33.2 ± 0.9 mm
  Length Male: 33.3 ± 1.5 mm
  Weight Female: 437 ± 30 mg
  Weight Male: 361 ± 57 mg
